Measured values as given in patent US8952024B2, “Herbicidal pyrimidone derivatives” (E I du Pont de Nemours and Company, priority 2009, dated 2015).

Tests used:
Assay type in all cases: in vivo
rice (Oryza sativa) = assay: Test B flooded paddy test; settings: for Plant response rating, Flood, Rice: 250 g ai/ha, flooded paddy test, visual rating on 0 to 100 scale (0 no effect, 100 complete control) after 13 to 15 days; for Plant response rating, Rice: Flood (flooded paddy test), 13 to 15 days
Summary of the method: (§1)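 Each compound is added to standing floodwater (3 cm above soil, maintained) in pots of 2-leaf-stage plants; greenhouse exposure lasts 13–15 d before visual comparison with controls on a 0–100 control scale.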

[1] = tested on: barnyardgrass (Echinochloa crus-galli); assay: Test B flooded paddy test; settings: for Plant response rating, Flood, Barnyardgrass: 250 g ai/ha, flooded paddy test, visual rating on 0 to 100 scale (0 no effect, 100 complete control) after 13 to 15 days; for Plant response rating, Barnyardgrass: Flood (flooded paddy test), 13 to 15 days
Summary of the method: as §1

[2] = tested on: ducksalad (Heteranthera limosa); assay: Test B flooded paddy test; settings: for Plant response rating, Flood, Ducksalad: 250 g ai/ha, flooded paddy test, visual rating on 0 to 100 scale (0 no effect, 100 complete control) after 13 to 15 days; for Plant response rating, Ducksalad: Flood (flooded paddy test), 13 to 15 days
Summary of the method: as §1

[3] = tested on: umbrella sedge (Cyperus difformis); assay: Test B flooded paddy test; settings: for Plant response rating, Flood, Sedge, Umbrella: 250 g ai/ha, flooded paddy test, visual rating on 0 to 100 scale (0 no effect, 100 complete control) after 13 to 15 days; for Plant response rating, Sedge, Umbrella: Flood (flooded paddy test), 13 to 15 days
Summary of the method: as §1

[4] = tested on: morningglory (Ipomoea spp.); assay: Test A pre-/postemergence plant response
Description: (§2) Seeds of barnyardgrass (Echinochloa crus-galli), large crabgrass (Digitaria sanguinalis), giant foxtail (Setaria faberii), morningglory (Ipomoea spp.), pigweed (Amaranthus retroflexus), velvetleaf (Abutilon theophrasti), wheat (Triticum aestivum) and corn (Zea mays) were planted into a blend of loam soil and sand and treated preemergence with a directed soil spray using test chemicals formulated in a non-phytotoxic solvent mixture which included a surfactant. At the same time these species were also treated with postemergence applications of test compounds formulated in the same manner.
(§3) Plants ranged in height from two to ten cm and were in the one- to two-leaf stage for the postemergence treatment. Treated plants and untreated controls were maintained in a greenhouse for approximately ten days, after which time all treated plants were compared to untreated controls and visually evaluated for injury. Plant response ratings, summarized in Table A, are based on a 0 to 100 scale where 0 is no effect and 100 is complete control. A dash (-) response means no test result.

[5] = tested on: wheat (Triticum aestivum); assay: Test A pre-/postemergence plant response
Description: as §2, §3

[6] = tested on: pigweed (Amaranthus retroflexus); assay: Test A pre-/postemergence plant response
Description: as §2, §3

[7] = tested on: barnyardgrass (Echinochloa crus-galli); assay: Test A pre-/postemergence plant response
Description: as §2, §3

[8] = tested on: velvetleaf (Abutilon theophrasti); assay: Test A pre-/postemergence plant response
Description: as §2, §3

[9] = tested on: giant foxtail (Setaria faberii); assay: Test A pre-/postemergence plant response
Description: as §2, §3

corn (Zea mays) = assay: Test A pre-/postemergence plant response
Description: as §2, §3

[10] = tested on: large crabgrass (Digitaria sanguinalis); assay: Test A pre-/postemergence plant response
Description: as §2, §3

[11] = 62 g ai/ha, scale of 0 to 100 where 0 is no effect and 100 is complete control
[12] = 125 g ai/ha, scale 0 to 100, 0 is no effect, 100 is complete control
[13] = Flood, 31 g ai/ha, scale 0 to 100 (0 no effect, 100 complete control)
[14] = Postemergence, 125 g ai/ha, 0 to 100 scale where 0 is no effect and 100 is complete control
[15] = Postemergence, 500 g ai/ha, 0 to 100 scale, 0 = no effect, 100 = complete control, approx. ten days
[16] = Preemergence, 125 g ai/ha, 0 to 100 scale, 0 = no effect, 100 = complete control
[17] = Preemergence, 500 g ai/ha, visual injury, 0 to 100 scale (0 no effect, 100 complete control), approx. ten days
[18] = 31 g ai/ha, scale of 0 to 100 where 0 is no effect and 100 is complete control
[19] = Postemergence, 125 g ai/ha, visual injury, 0 to 100 scale (0 no effect, 100 complete control), approx. ten days

CCCc1ncc(C(=O)C2=C(O)CCCC2=O)c(=O)n1Cc1cccc(OC)c1 [Compound 104]
Plant response rating, Flood, Rice (rice (Oryza sativa)): 0 | Plant response rating, Rice (rice (Oryza sativa); [11]): 0 | Plant response rating, Rice (rice (Oryza sativa); [12]): 0 | Rice plant response rating (rice (Oryza sativa); [13]): 0 | Plant response rating, Flood, Barnyardgrass [1]: 0 | Plant response rating, Barnyardgrass [1, 11]: 0 | Plant response rating, Barnyardgrass [1, 12]: 0 | Barnyardgrass plant response rating [1, 13]: 0 | Plant response rating, Flood, Ducksalad [2]: 0 | Plant response rating, Ducksalad [2, 11]: 0 | Plant response rating, Ducksalad [2, 12]: 0 | Ducksalad plant response rating [2, 13]: 0 | Plant response rating, Flood, Sedge, Umbrella [3]: 0 | Plant response rating, Sedge, Umbrella [3, 11]: 0 | Plant response rating, Sedge, Umbrella [3, 12]: 0 | Sedge, Umbrella plant response rating [3, 13]: 0 | Plant response rating, Morningglory [4, 14]: 70 | Plant response rating, Morningglory [4, 15]: 100 | Plant response rating, Morningglory [4, 16]: 0 | Plant response rating, Morningglory [4, 17]: 0 | Plant response rating, Wheat [5, 14]: 0 | Plant response rating, Wheat [5, 15]: 0 | Plant response rating, Wheat [5, 16]: 0 | Plant response rating, Wheat [5, 17]: 0 | Plant response rating, Pigweed [6, 14]: 100 | Plant response rating, Pigweed [6, 15]: 100 | Plant response rating, Pigweed [6, 16]: 80 | Plant response rating, Pigweed [6, 17]: 90 | Plant response rating, Barnyardgrass [7, 14]: 10 | Plant response rating, Barnyardgrass [7, 15]: 40 | Plant response rating, Barnyardgrass [7, 16]: 0 | Plant response rating, Barnyardgrass [7, 17]: 0 | Plant response rating, Velvetleaf [8, 14]: 70 | Plant response rating, Velvetleaf [8, 15]: 80 | Plant response rating, Velvetleaf [8, 16]: 0 | Plant response rating, Velvetleaf [8, 17]: 40 | Plant response rating, Foxtail, Giant [9, 14]: 0 | Plant response rating, Foxtail, Giant [9, 15]: 0 | Plant response rating, Foxtail, Giant [9, 16]: 0 | Plant response rating, Foxtail, Giant [9, 17]: 0 | Plant response rating, Corn (corn (Zea mays); [14]): 0 | Plant response rating, Corn (corn (Zea mays); [15]): 0 | Plant response rating, Corn (corn (Zea mays); [16]): 0 | Plant response rating, Corn (corn (Zea mays); [17]): 0 | Plant response rating, Crabgrass, Large [10, 14]: 0 | Plant response rating, Crabgrass, Large [10, 15]: 0 | Plant response rating, Crabgrass, Large [10, 16]: 0 | Plant response rating, Crabgrass, Large [10, 17]: 0

CCCCCCc1ncc(C(=O)C2=C(O)CCCC2=O)c(=O)n1-c1ccccc1 [Compound 54]
Plant response rating, Flood, Rice (rice (Oryza sativa)): 0 | Plant response rating, Rice (rice (Oryza sativa); [18]): 0 | Plant response rating, Rice (rice (Oryza sativa); [11]): 0 | Plant response rating, Rice (rice (Oryza sativa); [12]): 0 | Plant response rating, Flood, Barnyardgrass [1]: 0 | Plant response rating, Barnyardgrass [1, 18]: 0 | Plant response rating, Barnyardgrass [1, 11]: 0 | Plant response rating, Barnyardgrass [1, 12]: 0 | Plant response rating, Flood, Ducksalad [2]: 40 | Plant response rating, Ducksalad [2, 18]: 0 | Plant response rating, Ducksalad [2, 11]: 0 | Plant response rating, Ducksalad [2, 12]: 30 | Plant response rating, Flood, Sedge, Umbrella [3]: 40 | Plant response rating, Sedge, Umbrella [3, 18]: 0 | Plant response rating, Sedge, Umbrella [3, 11]: 0 | Plant response rating, Sedge, Umbrella [3, 12]: 0 | Morningglory plant response rating [4, 19]: 40 | Plant response rating, Morningglory [4, 15]: 100 | Plant response rating, Morningglory [4, 16]: 0 | Plant response rating, Morningglory [4, 17]: 0 | Wheat plant response rating [5, 19]: 0 | Plant response rating, Wheat [5, 15]: 0 | Plant response rating, Wheat [5, 16]: 0 | Plant response rating, Wheat [5, 17]: 0 | Pigweed plant response rating [6, 19]: 100 | Plant response rating, Pigweed [6, 15]: 100 | Plant response rating, Pigweed [6, 16]: 80 | Plant response rating, Pigweed [6, 17]: 90 | Barnyardgrass plant response rating [7, 19]: 10 | Plant response rating, Barnyardgrass [7, 15]: 60 | Plant response rating, Barnyardgrass [7, 16]: 0 | Plant response rating, Barnyardgrass [7, 17]: 10 | Velvetleaf plant response rating [8, 19]: 100 | Plant response rating, Velvetleaf [8, 15]: 100 | Plant response rating, Velvetleaf [8, 16]: 60 | Plant response rating, Velvetleaf [8, 17]: 70 | Foxtail, Giant plant response rating [9, 19]: 10 | Plant response rating, Foxtail, Giant [9, 15]: 60 | Plant response rating, Foxtail, Giant [9, 16]: 0 | Plant response rating, Foxtail, Giant [9, 17]: 0 | Corn plant response rating (corn (Zea mays); [19]): 0 | Plant response rating, Corn (corn (Zea mays); [15]): 10 | Plant response rating, Corn (corn (Zea mays); [16]): 0 | Plant response rating, Corn (corn (Zea mays); [17]): 0 | Crabgrass, Large plant response rating [10, 19]: 40 | Plant response rating, Crabgrass, Large [10, 15]: 70 | Plant response rating, Crabgrass, Large [10, 16]: 0 | Plant response rating, Crabgrass, Large [10, 17]: 30
